Measured values reported in PubChem BioAssay (NCI).
Where “and” joins values, the source holds several entries; their conditions need not be identical. Equal entries are not always repeated.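 These data come from cells grown in 96-well plates and exposed to compound for 48 hours at five concentrations. Here, GI50 denotes the concentration required for 50% inhibition of growth. TGI is the concentration that stops growth completely.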

Tests used:
Assay in all cases: NCI tumour cell line growth inhibition, 48 h
HL-60(TB) leukemia = system: HL-60(TB) leukemia
HOP-92 NSCLC = system: HOP-92 NSCLC
NCI-H23 lung = system: NCI-H23 lung
NCI-H226 lung = system: NCI-H226 lung
U251 CNS = system: U251 CNS
OVCAR-5 ovarian = system: OVCAR-5 ovarian
MDA-MB-231 breast = system: MDA-MB-231 breast
HCT-15 colon = system: HCT-15 colon
786-0 renal = system: 786-0 renal
UACC-62 melanoma = system: UACC-62 melanoma

Compound	GI50 (HL-60(TB) leukemia)	TGI (HOP-92 NSCLC)	GI50 (NCI-H23 lung)	TGI (NCI-H23 lung)	GI50 (NCI-H226 lung)	TGI (NCI-H226 lung)	GI50 (U251 CNS)	TGI (U251 CNS)	GI50 (OVCAR-5 ovarian)	TGI (OVCAR-5 ovarian)	GI50 (MDA-MB-231 breast)	TGI (MDA-MB-231 breast)	GI50 (HCT-15 colon)	TGI (HCT-15 colon)	GI50 (786-0 renal)	TGI (786-0 renal)	GI50 (UACC-62 melanoma)	TGI (UACC-62 melanoma)	TGI (HL-60(TB) leukemia)	GI50 (HOP-92 NSCLC)
CC(=O)Nc1ccc(-c2csc(Nc3cccc(-c4csc(C)n4)c3)n2)cc1	609 nM	> 23100 nM	3310 nM	> 27700 nM	4920 nM	16800 nM	1130 nM	9690 nM	10000 nM	> 36800 nM	1280 nM	5070 nM	289 nM	> 27400 nM	2030 nM	18200 nM	139 nM	1510 nM	–	–
COc1cc(N(CCC#N)CCC#N)ccc1/C(N=Nc1ccc(Cl)cc1)=N/NC(=O)c1cc(Br)ccc1O	62.1 µg/mL	> 150 µg/mL	> 150 µg/mL	> 150 µg/mL	32.4 µg/mL	128 µg/mL	145 µg/mL	> 150 µg/mL	> 150 µg/mL	> 150 µg/mL	38.8 µg/mL	> 150 µg/mL	32.7 µg/mL	66.4 µg/mL	77.1 µg/mL	> 150 µg/mL	112 µg/mL	> 150 µg/mL	> 150 µg/mL	> 150 µg/mL
O=C(Nc1cc(C(F)(F)F)cc(C(F)(F)F)c1)c1cc(Cl)ccc1O	201 nM and 239 nM	418 nM and 304 nM	218 nM and 263 nM	754 nM and 1340 nM	262 nM and 317 nM	992 nM and 1590 nM	234 nM and 228 nM	> 9500 nM and 7900 nM	305 nM and 357 nM	> 5030 nM and 15900 nM	241 nM and 225 nM	> 2170 nM and 2630 nM	271 nM and 276 nM	1620 nM and 1490 nM	269 nM and 293 nM	881 nM and 1150 nM	129 nM and 100 nM	668 nM and 595 nM	1690 nM and 641 nM	120 nM and 41.2 nM
Clc1cc2c(c(CSc3nc4ccccc4n4cccc34)c1)OCOC2	> 100000 nM	35500 nM	26300 nM	> 100000 nM	14300 nM	> 100000 nM	17100 nM	> 100000 nM	> 100000 nM	> 100000 nM	12700 nM	> 100000 nM	2700 nM	> 100000 nM	51600 nM	> 100000 nM	76500 nM	> 100000 nM	> 100000 nM	5360 nM
O=C(Nc1ccc(Br)cc1F)c1cc(Cl)ccc1O	481 nM	557 nM	492 nM	5140 nM	1200 nM	4570 nM	709 nM	> 100000 nM	3670 nM	> 100000 nM	554 nM	5230 nM	972 nM	10500 nM	2540 nM	7620 nM	292 nM	1160 nM	3190 nM	174 nM
O=c1oc2ccc(-c3ccc(F)cc3F)cc2c(=O)n1-c1cccc(C(F)(F)F)c1	1330 nM	931 nM	687 nM	3590 nM	1430 nM	5190 nM	1730 nM	12700 nM	4110 nM	> 100000 nM	2080 nM	7370 nM	1610 nM	23400 nM	2470 nM	6500 nM	382 nM	2790 nM	3890 nM	172 nM
CCOc1ccc(/C=C2\N=C(c3ccc([N+](=O)[O-])cc3)OC2=O)cc1	–	> 100000 nM	–	> 100000 nM	–	> 100000 nM	–	> 100000 nM	–	> 100000 nM	–	> 100000 nM	–	> 100000 nM	–	> 100000 nM	–	> 100000 nM	> 100000 nM	–
S=c1[nH]c(=S)c2cc3ccccc3nc2[nH]1	38000 nM	> 100000 nM	35000 nM	> 100000 nM	> 100000 nM	> 100000 nM	5980 nM	41600 nM	> 100000 nM	> 100000 nM	51000 nM	> 100000 nM	> 100000 nM	> 100000 nM	> 100000 nM	> 100000 nM	69500 nM	> 100000 nM	> 100000 nM	15400 nM
COc1ccc2nc3ccccc3c(NCc3ccc(F)cc3)c2c1	1170 nM	6600 nM	1890 nM	8460 nM	1810 nM	9280 nM	1940 nM	7820 nM	2250 nM	8210 nM	1850 nM	7260 nM	1540 nM	5230 nM	1870 nM	6820 nM	3480 nM	10200 nM	2800 nM	1390 nM
